Data on five molecules can be found in publication PMC6880192, “Structure–Effect Relationships of Novel Semi-Synthetic Cannabinoid Derivatives” (Frontiers in Pharmacology, 2019).

One data set concerns primary human monocytes. As to the kind of experiment: Anti-inflammatory effect on LPS-treated monocytes (ELISA). The data set is classed as cell-based. The protocol:
Human peripheral blood monocytes were prepared from healthy donors who provided written informed consent at the local blood bank (University Hospital of Freiburg, Germany). Mononuclear cells were isolated by density gradient centrifugation according to standard protocol ([English and Andersen, 1974]) using lymphocyte separation medium, (PAN Biotech, Aidenbach). Cells were resuspended in RPMI-1640 medium (Invitrogen/Thermo Fisher Scientific, Karlsruhe) containing 10% human serum (Hexacell, Berlin). About 5 × 10^5 cells per milliliter were seeded in 24-well plates and incubated at 37°C and 5% CO2. The medium and the non-adherent cells were removed by washing with PBS and fresh RPMI medium, and 1% human serum was added to each well.
To test the anti-inflammatory effect of the test compounds, monocytes were incubated for 30 min with increasing doses of the test compounds. Then lipopolysaccharide (LPS) (10 ng/ml; Escherichia coli, Sigma-Aldrich, St. Louis) was added followed by a 24 h incubation period. The supernatants were removed and the levels of IL-1β, IL-6, IL-8, TNF-α, and prostaglandin E2 (PGE2) determined by enzyme-linked immunosorbent assay (ELISA) performed according to the manufacturer’s instructions (IL-1β from Hiss, Freiburg; IL-6, IL-8, and TNF-α from ImmunoTools, Friesoythe; and PGE2 from Cayman, distributed by Biozol, Hamburg). Stimulation with LPS alone was considered 100%.

The test system of another data set is RAW264.7 macrophages. As to the kind of experiment: MTT cytotoxicity assay. In kind it is cell-based. The settings on record: RAW264.7, concentrations of 5 and 10 µmol/L. From the text: Cytotoxicity tests were done on CHO cells, Jurkat T-cells, or RAW264.7 macrophages using the MTT assay (Sigma-Aldrich, St. Louis) and on primary human monocytes with the alamarBlue assay (Thermo Fisher Scientific, Karlsruhe).

Another data set deals with T1, CB1-receptor (Homo sapiens, UniProt P21554).
T1 construct: expressed in transfected cells; host or cells: CHO cells, stably transfected with CB1 cDNA (from IMIBIC) and transiently with CRE-luc
Kind of data set: cAMP-dependent luciferase assay in CHO-CB1-CRE-luc cells. In kind it is cell-based. The settings on record: CHO-CB1-CRE-luc, summary classification. How it is done: (§1) Briefly, CHO cells were stably transfected with CB1- and CB2-receptor complementary DNAs (cDNAs) (kindly provided by IMIBIC). Around 10^5 transfected cells per milliliter were seeded in 24-well plates and transiently transfected with the plasmid CRE-luc using Roti-Fect (Carl Roth, Karlsruhe) following the manufacturer’s instructions. The cells were harvested after 24 h. Two transfected cell types resulted: CHO-CB1-CRE-luc and CHO-CB2-CRE-luc.
(§2) To test for agonistic activity at the CB1-receptor, the CHO-CB1-CRE-luc cells were stimulated for 6 h with increasing concentrations of the test compounds ([Bouaboula et al. 1997]). Forskolin (FSK), a strong CB-receptor-independent activator of adenylyl-cyclase was used at 10 µmol/L as a positive control. To investigate the antagonistic activity, the CHO-CB1-CRE-luc cells were pre-incubated for 15 min with the test compounds before stimulation for 6 h with 1 µmol/L WIN ([Zheng et al. 2013]). To investigate CB2-receptor agonistic activity, CHO-CB2-CRE-luc cells were pre-incubated for 15 min with increasing concentrations of the test substances and then for 6 h with 10 µmol/L FSK. WIN, a non-specific agonist at CB2-receptors, was used as a positive control. To confirm CB2-receptor agonistic activities of the test compounds, CHO-CB2-CRE-luc cells were pre-incubated with the specific CB2-receptor antagonist AM630 (1 µmol/L, 6-iodopravadoline; Cayman, distributed by Biozol, Hamburg) ([Ross et al. 1999]; [Zheng et al. 2013]) and then treated with increasing concentrations of the test substances.
(§3) After the stimulations and incubations, cells were lysed in a solution of 25 mmol Tris-phosphate (pH = 7.8), 8 mmol MgCl2, 1 mmol dithiothreitol (DTT), 1% Triton X-100, and 7% glycerol. The luciferase activity was measured with a Luciferase Assay Kit (Promega, Madison) according to the manufacturer’s instructions using an AutoLumat LB 9501 (Berthold Technologies, Bad Wildbad).

The next data set deals with NFAT. Kind of data set: PMA/IO-induced NFAT-luc activation in Jurkat T-cells. The data set is classed as cell-based. The settings on record: 0.5–25 µmol/L. How it is done:
Jurkat T-cells (10^6 cells per milliliter) were transiently transfected with plasmids that contained an NF-κB-dependent (KBF-luc) or NFAT-dependent (NFAT-luc) promotors fused to the luciferase gene using Lipofectin (Life Technologies, Carlsbad) according to the manufacturer’s instructions ([Yano et al. 1987]; [Durand et al. 1988]). Twenty-four hours after transfection, cells were stimulated for 30 min with increasing doses of the test compounds or WIN as a control (Tocris, Bristol). Then PMA (50 ng/ml)—for NFAT-luc—plus ionomycin (0.5 µg/ml) (Sigma-Aldrich, St. Louis) was added, followed by a 6 h incubation period.
as §3

Data set [1] deals with T2, CB2-receptor (Homo sapiens, UniProt P34972).
T2 construct: expressed in transfected cells; host or cells: CHO cells, stably transfected with CB2 cDNA (from IMIBIC) and transiently with CRE-luc
As to the kind of experiment: cAMP-dependent luciferase assay in CHO-CB2-CRE-luc cells. In kind it is cell-based. The settings on record: for CB2-receptor agonistic activity (fold induction of CRE-luc): 15 min pre-incubation, then 10 µmol/L FSK for 6 h; for Effect on CB2: CHO-CB2-CRE-luc, summary classification. The protocol: as §1, §2, §3

In data set [2] the target is T2, CB2-receptor. Kind of data set: Competition binding against [3H]-CP55940, CB2 membranes. The settings on record: ratio of Ki values.
Another data set relates to CB1-/CB2-receptors. The arrangement: method as in Rosenthaler et al. 2014. The settings on record: ref Rosenthaler et al. 2014; cited from earlier work.

T1 sequence (P21554 whole entry): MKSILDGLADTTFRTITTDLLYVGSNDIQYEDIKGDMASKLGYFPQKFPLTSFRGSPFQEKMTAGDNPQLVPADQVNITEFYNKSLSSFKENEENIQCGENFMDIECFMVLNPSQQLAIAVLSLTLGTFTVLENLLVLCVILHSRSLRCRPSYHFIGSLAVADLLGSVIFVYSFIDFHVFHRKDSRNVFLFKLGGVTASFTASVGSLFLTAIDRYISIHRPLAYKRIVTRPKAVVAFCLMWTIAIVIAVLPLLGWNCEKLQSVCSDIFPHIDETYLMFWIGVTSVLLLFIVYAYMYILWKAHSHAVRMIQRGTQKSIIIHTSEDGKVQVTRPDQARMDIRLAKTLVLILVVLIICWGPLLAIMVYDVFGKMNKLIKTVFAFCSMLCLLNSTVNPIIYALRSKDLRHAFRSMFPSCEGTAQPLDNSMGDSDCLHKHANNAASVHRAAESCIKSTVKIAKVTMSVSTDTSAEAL
T2 sequence (P34972 whole entry): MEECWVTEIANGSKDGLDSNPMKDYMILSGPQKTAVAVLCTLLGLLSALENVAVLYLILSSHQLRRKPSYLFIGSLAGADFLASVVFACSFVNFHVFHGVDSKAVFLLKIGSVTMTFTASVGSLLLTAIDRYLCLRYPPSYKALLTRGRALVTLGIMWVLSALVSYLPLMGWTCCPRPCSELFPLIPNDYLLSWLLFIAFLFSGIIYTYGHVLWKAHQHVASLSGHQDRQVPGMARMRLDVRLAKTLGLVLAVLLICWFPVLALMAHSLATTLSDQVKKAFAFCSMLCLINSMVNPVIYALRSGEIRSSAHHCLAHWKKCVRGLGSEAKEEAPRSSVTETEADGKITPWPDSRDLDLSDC

`C=C(C)[C@@H]1CCC(C)=C[C@H]1c1c(O)cc(CCCCC)c(C(=O)OCCO)c1O` [2-HEC (1), 2-hydroxyethyl cannabidiolate]: in the data set on primary human monocytes (LPS 10 ng/ml, 24 h), the “LPS-induced IL-1β release” value is listed as “significantly inhibited”, the “LPS-induced IL-6 release” value was “significantly inhibited” and the “LPS-induced TNF-α release” value is given as “significantly inhibited”. Moreover, the “Effect on cell viability” value with RAW264.7 macrophages is recorded as “negative effect on cell viability”. Further, the “Effect on CB1” value at CB1-receptor is reported as “Antagonist”. For the same molecule, the “Inhibition of PMA/IO-induced NFAT activation” value (from here on “Inhibition”) in the data set on NFAT was “significantly inhibited”. Further, on CB2-receptor [1], the “CB2-receptor agonistic activity (fold induction of CRE-luc)” value was “dose dependency” and the “Effect on CB2” value is “Agonist”. In addition, on CB2-receptor [1] (same dose as 1 µmol/L WIN), the “CB2 agonistic effect compared with positive control WIN” value was “as strong as the same dose of the positive control”. On CB2-receptor [2], the “Selectivity CB2/CB1” value was 10.5.
For the molecule `C=C(C)[C@@H]1CCC(C)=C[C@H]1c1c(O)cc(CCCCC)c(C(=O)OCC(O)CCC)c1O` (stereo partly drawn) [2-HPC (2), 2-hydroxypentyl cannabidiolate], in the data set with primary human monocytes (LPS 10 ng/ml, 24 h), the “LPS-induced IL-6 release” value is “significantly inhibited” and the “LPS-induced TNF-α release” value is “significantly inhibited”. In the data set on primary human monocytes (dose of 1 µmol/L), the “LPS-stimulated IL-8 synthesis” value was “inhibited” and the “LPS-stimulated PGE2 synthesis” value is recorded as “inhibited”. Moreover, in the data set on RAW264.7 macrophages, the “Effect on cell viability” value was “negative effect on cell viability”. Further, the “Effect on CB1” value on CB1-receptor is “Antagonist”. Moreover, the “Inhibition” value in the data set on NFAT is reported as “significantly inhibited”. The “Effect on CB2” value on CB2-receptor [1] was “Agonist”.
In the case of `C=C(C)[C@@H]1CCC(C)=C[C@H]1c1c(O)cc(CCCCC)cc1O` [CBD, (-)-trans-cannabidiol], in the data set on CB1-/CB2-receptors, the “Affinity for CB1-/CB2-receptors” value is “poor affinity”.
`C=C(C)[C@@H]1CCC(C)=C[C@H]1c1c(O)cc(CCC)cc1O` [CBDV, (-)-trans-cannabidivarin]: the “Affinity for CB1-/CB2-receptors” value with CB1-/CB2-receptors is recorded as “poor affinity”.
On to `C=C(C)[C@@H]1CCC(C)=C[C@H]1c1c(O)cc(CCCCC)c(C(=O)OCC(O)CO)c1O` (stereo partly drawn) [GCBD (3), 2,3-dihydroxypropyl cannabidiolate], for which, in the data set with primary human monocytes (LPS 10 ng/ml, 24 h), the “LPS-induced IL-1β release” value is on record as “significantly inhibited”, the “LPS-induced IL-6 release” value is listed as “significantly inhibited”, the “LPS-induced IL-8 release” value is recorded as “costimulated” and the “LPS-induced TNF-α release” value is reported as “significantly inhibited”. Besides, the “Effect on cell viability” value in the data set on RAW264.7 macrophages is “negative effect on cell viability”. Moreover, the “Effect on CB1” value at CB1-receptor is listed as “Antagonist”. For the same molecule, the “Inhibition” value in the data set on NFAT is reported as “significantly inhibited”. For the same molecule, at CB2-receptor [1], the “CB2-receptor agonistic activity (fold induction of CRE-luc)” value is given as “dose-dependent agonistic effects” and the “Effect on CB2” value is reported as “Agonist”. The “Selectivity CB2/CB1” value on CB2-receptor [2] came to 7.8.
